With `C[Si](C)(CC(CN)CC(=O)O)C1CC1` (stereo not shown) as the compound, how does the melting point read?
The melting point was 151.5 to 153 °C.

From patent US9353134B2, “Silicon-containing carboxylic acid derivative” (KEMPHYS LTD., priority 2012, dated 2016)
